Experimental data published in patent US6737383B1, “Herbicidal oxadiazolidines” (priority 1999, dated 2004).

How the values were obtained:
surinam grass = experiment: Test B pre/postemergence surinam grass; assay type: in vivo, Brachiaria decumbens
Summary of the method: (§1)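 Herbicidal effect was estimated by eye on a ten-point control scale after plants spent twelve to sixteen days in a greenhouse following soil or foliar treatment. Foliar sprays targeted plants at one to four leaves; all doses were formulated in a non-phytotoxic solvent with surfactant.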

corn = experiment: Test B pre/postemergence corn; assay type: in vivo, Zea mays
Summary of the method: as §1

velvetleaf = experiment: Test B pre/postemergence velvetleaf; assay type: in vivo, Abutilon theophrasti
Summary of the method: as §1

purple nutsedge = experiment: Test B pre/postemergence purple nutsedge; assay type: in vivo, Cyperus rotundus
Summary of the method: as §1

smallflower flatsedge = experiment: Test B flood test smallflower flatsedge; assay type: in vivo, Cyperus difformis
Summary of the method: (§2)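 Flood test on plants grown to the 2-leaf stage; treated plants kept in greenhouse twelve to sixteen days, then visually rated against controls on a 0 (no effect) to 10 (complete control) scale.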

rape = experiment: Test B pre/postemergence rape; assay type: in vivo, Brassica napus
Summary of the method: as §1

wild oat = experiment: Test B pre/postemergence wild oat; assay type: in vivo, Avena fatua
Summary of the method: as §1

soybean = experiment: Test B pre/postemergence soybean; assay type: in vivo, Glycine max
Summary of the method: as §1

blackgrass = experiment: Test B pre/postemergence blackgrass; assay type: in vivo, Alopecurus myosuroides
Summary of the method: as §1

duck salad = experiment: Test B flood test duck salad; assay type: in vivo, Heteranthera limosa
Summary of the method: as §2

sugar beet = experiment: Test B pre/postemergence sugar beet; assay type: in vivo, Beta vulgaris
Summary of the method: as §1

pigweed = experiment: Test B pre/postemergence pigweed; assay type: in vivo, Amaranthus retroflexus
Summary of the method: as §1

bedstraw = experiment: Test B pre/postemergence bedstraw; assay type: in vivo, Galium aparine
Summary of the method: as §1

wheat = experiment: Test B pre/postemergence wheat; assay type: in vivo, Triticum aestivum
Summary of the method: as §1

rice = experiment: Test B flood test rice; assay type: in vivo, Oryza sativa
Summary of the method: as §2

crabgrass = experiment: Test B pre/postemergence crabgrass; assay type: in vivo, Digitaria sanguinalis
Summary of the method: as §1

[1] = Preemergence, Rate 62 g/ha, scale of 0 to 10 where 0 is no effect and 10 is complete control
[2] = Preemergence, Rate 125 g/ha, 0 is no effect, 10 is complete control
[3] = Preemergence, Rate 250 g/ha, scale 0 to 10, 0 is no effect, 10 is complete control
[4] = Preemergence, Rate 500 g/ha, scale of 0 to 10 where 0 is no effect and 10 is complete control
[5] = Rate 62 g/ha, Postemergence, scale of 0 to 10 where 0 is no effect and 10 is complete control
[6] = Rate 125 g/ha, Postemergence, scale 0 to 10
[7] = Rate 500 g/ha, Postemergence, scale 0 to 10
[8] = Rate 62 g/ha, headed Pre-emergence (flood test species), scale 0 to 10 (0 no effect, 10 complete control)
[9] = Rate 125 g/ha, Pre-emergence, flood test species, scale 0 to 10 where 0 is no effect and 10 is complete control
[10] = Rate 250 g/ha, Pre-emergence, flood-test species, scale 0 to 10, 0 is no effect, 10 is complete control
[11] = Rate 500 g/ha, Pre-emergence, flood test species, scale 0 to 10 (0 no effect, 10 complete control)

Structure (SMILES): CC(C)N(C(=O)n1oc(=O)n(Cc2ccco2)c1=O)c1ccc(F)cc1 [Compound 207]
- B. signalgrass plant response rating (surinam grass; [1]): 0
- B. signalgrass plant response rating (0 to 10 scale) (surinam grass; [2]): 0
- B. signalgrass plant response rating (surinam grass; [3]): 0
- Plant response rating, B. signalgrass (surinam grass; [4]): 0
- B. signalgrass plant response rating (surinam grass; [5]): 0
- B. signalgrass plant response rating (surinam grass; Rate 125 g/ha, Postemergence, scale 0 (no effect) to 10 (complete control)): 0
- Plant response rating, B. signalgrass (surinam grass; Rate 250 g/ha, Postemergence, scale 0 to 10, 0 is no effect, 10 is complete control): 0
- B. signalgrass plant response rating (surinam grass; Rate 500 g/ha, Postemergence, scale 0 to 10, 0 no effect, 10 complete control): 0
- Corn plant response rating (corn; [1]): 0
- Corn plant response rating (0 to 10 scale) (corn; [2]): 0
- Corn plant response rating (corn; [3]): 0
- Plant response rating, Corn (corn; [4]): 0
- Corn plant response rating (corn; [5]): 0
- Corn plant response rating (corn; [6]): 0
- Plant response rating (0 to 10; 0 is no effect, 10 is complete control), Corn (corn; Rate 250 g/ha, Postemergence): 0
- Corn plant response rating (corn; [7]): 0
- Velvetleaf plant response rating (velvetleaf; [1]): 0
- Velvetleaf plant response rating (velvetleaf; [3]): 0
- Plant response rating, Velvetleaf (velvetleaf; [4]): 5
- Velvetleaf plant response rating (velvetleaf; [5]): 0
- Velvetleaf plant response rating (velvetleaf; [6]): 1
- Plant response rating (0 to 10; 0 is no effect, 10 is complete control), Velvetleaf (velvetleaf; Rate 250 g/ha, Postemergence): 1
- Nutsedge plant response rating (purple nutsedge; [1]): 0
- Nutsedge plant response rating (0 to 10 scale) (purple nutsedge; [2]): 0
- Nutsedge plant response rating (purple nutsedge; [3]): 0
- Plant response rating, Nutsedge (purple nutsedge; [4]): 0
- Nutsedge plant response rating (purple nutsedge; [5]): 0
- Nutsedge plant response rating (purple nutsedge; [6]): 0
- Plant response rating (0 to 10; 0 is no effect, 10 is complete control), Nutsedge (purple nutsedge; Rate 250 g/ha, Postemergence): 0
- Nutsedge plant response rating (purple nutsedge; [7]): 0
- S. Flatsedge plant response rating (smallflower flatsedge; [8]): 0
- S. Flatsedge plant response rating (smallflower flatsedge; [9]): 0
- S. Flatsedge plant response rating (smallflower flatsedge; [10]): 0
- S. Flatsedge plant response rating (smallflower flatsedge; [11]): 0
- Rape plant response rating (rape; [1]): 0
- Rape plant response rating (0 to 10 scale) (rape; [2]): 0
- Rape plant response rating (rape; [3]): 0
- Plant response rating, Rape (rape; [4]): 2
- Rape plant response rating (rape; [5]): 0
- Rape plant response rating (rape; [6]): 0
- Plant response rating (0 to 10; 0 is no effect, 10 is complete control), Rape (rape; Rate 250 g/ha, Postemergence): 0
- Rape plant response rating (rape; [7]): 2
- Wild oats plant response rating (wild oat; [1]): 0
- Wild oats plant response rating (wild oat; [3]): 0
- Plant response rating, Wild oats (wild oat; [4]): 0
- Wild oats plant response rating (wild oat; [5]): 0
- Wild oats plant response rating (wild oat; [6]): 0
- Plant response rating (0 to 10; 0 is no effect, 10 is complete control), Wild oats (wild oat; Rate 250 g/ha, Postemergence): 0
- Soybean plant response rating (soybean; [1]): 0
- Soybean plant response rating (0 to 10 scale) (soybean; [2]): 0
- Soybean plant response rating (soybean; [3]): 0
- Plant response rating, Soybean (soybean; [4]): 0
- Soybean plant response rating (soybean; [5]): 1
- Soybean plant response rating (soybean; [6]): 2
- Plant response rating (0 to 10; 0 is no effect, 10 is complete control), Soybean (soybean; Rate 250 g/ha, Postemergence): 2
- Soybean plant response rating (soybean; [7]): 5
- Blackgrass plant response rating (blackgrass; [1]): 0
- Blackgrass plant response rating (0 to 10 scale) (blackgrass; [2]): 0
- Blackgrass plant response rating (blackgrass; [3]): 4
- Plant response rating, Blackgrass (blackgrass; [4]): 7
- Blackgrass plant response rating (blackgrass; [5]): 0
- Blackgrass plant response rating (blackgrass; [6]): 2
- Plant response rating (0 to 10; 0 is no effect, 10 is complete control), Blackgrass (blackgrass; Rate 250 g/ha, Postemergence): 2
- Blackgrass plant response rating (blackgrass; [7]): 4
- Ducksalad plant response rating (duck salad; [8]): 0
- Ducksalad plant response rating (duck salad; [9]): 0
- Ducksalad plant response rating (duck salad; [10]): 0
- Ducksalad plant response rating (duck salad; [11]): 2
- Sugarbeets plant response rating (sugar beet; [1]): 0
- Sugarbeets plant response rating (0 to 10 scale) (sugar beet; [2]): 0
- Sugarbeets plant response rating (sugar beet; [3]): 0
- Plant response rating, Sugarbeets (sugar beet; [4]): 0
- Sugarbeets plant response rating (sugar beet; [5]): 0
- Sugarbeets plant response rating (sugar beet; [6]): 0
- Plant response rating (0 to 10; 0 is no effect, 10 is complete control), Sugarbeets (sugar beet; Rate 250 g/ha, Postemergence): 0
- Sugarbeets plant response rating (sugar beet; [7]): 2
- Redroot pigweed plant response rating (pigweed; [1]): 0
- Redroot pigweed plant response rating (0 to 10 scale) (pigweed; [2]): 0
- Redroot pigweed plant response rating (pigweed; [3]): 2
- Plant response rating, Redroot pigweed (pigweed; [4]): 8
- Redroot pigweed plant response rating (pigweed; [5]): 0
- Redroot pigweed plant response rating (pigweed; [6]): 0
- Plant response rating (0 to 10; 0 is no effect, 10 is complete control), Redroot pigweed (pigweed; Rate 250 g/ha, Postemergence): 0
- Redroot pigweed plant response rating (pigweed; [7]): 0
- Bedstraw plant response rating (bedstraw; [1]): 0
- Bedstraw plant response rating (0 to 10 scale) (bedstraw; [2]): 0
- Bedstraw plant response rating (bedstraw; [3]): 0
- Plant response rating, Bedstraw (bedstraw; [4]): 0
- Bedstraw plant response rating (bedstraw; [5]): 0
- Bedstraw plant response rating (bedstraw; [6]): 0
- Plant response rating (0 to 10; 0 is no effect, 10 is complete control), Bedstraw (bedstraw; Rate 250 g/ha, Postemergence): 5
- Bedstraw plant response rating (bedstraw; [7]): 5
- Wheat plant response rating (wheat; [1]): 0
- Wheat plant response rating (wheat; [3]): 0
- Plant response rating, Wheat (wheat; [4]): 0
- Wheat plant response rating (wheat; [5]): 0
- Wheat plant response rating (wheat; [6]): 0
- Plant response rating (0 to 10; 0 is no effect, 10 is complete control), Wheat (wheat; Rate 250 g/ha, Postemergence): 0
- Rice plant response rating (rice; [8]): 0
- Rice plant response rating (rice; [9]): 0
- Rice plant response rating (rice; [10]): 0
- Rice plant response rating (rice; [11]): 0
- Crabgrass plant response rating (crabgrass; [1]): 0
- Crabgrass plant response rating (0 to 10 scale) (crabgrass; [2]): 0
- Crabgrass plant response rating (crabgrass; [3]): 3
- Plant response rating, Crabgrass (crabgrass; [4]): 4
- Crabgrass plant response rating (crabgrass; [5]): 0
- Crabgrass plant response rating (crabgrass; [6]): 0
- Plant response rating (0 to 10; 0 is no effect, 10 is complete control), Crabgrass (crabgrass; Rate 250 g/ha, Postemergence): 2
- Crabgrass plant response rating (crabgrass; [7]): 3
